# Test: method code SF-HPLC, from DOI: 10.1002/jps.2600810814, PMID: 1403725
row,SMILES,logP
1,CC(C)CN(CC(C)C)N=O,2.39
2,CCN(CC)N=O,0.61
3,CCCCN(CCC)N=O,2.13
4,CCN(N=O)C(C)C,1
5,CCCN(C)N=O,0.61
6,CCCCN(CCCC)N=O,2.73
7,CCN(C)N=O,0.08
8,CN(C)N=O,-0.38
9,CC(C)N(N=O)C(C)C,1.48
10,CCCCN(CC)N=O,1.67
11,CCCCN(C)N=O,1.12
12,CCCCCN(CCCCC)N=O,3.91
13,CN(N=O)C(C)(C)C,0.86
14,CCCN(CCC)N=O,1.61
